What was measured:
[1] = tested on: Hepatitis B Virus (HBV); assay: Serum HBeAg levels in pHBV model mice (ELISA); format: in vivo; conditions: single s.c. injection day 1, Example 7; for Average HBeAg levels normalized to pre-treatment and PBS control: pooled serum
Source text: (§1) Six to eight-week-old female NOD.CB17-Prkdscid/NcrCrl (NOD-SCID) mice were transiently transfected in vivo with MC-HBV1.3 by hydrodynamic tail vein injection (Yang P L et al. “Hydrodynamic injection of viral DNA: a mouse model of acute hepatitis B virus infection,” PNAS USA 2002 Vol. 99: p. 13825-13830), administered 30 to 45 days prior to administration of an HBV RNAi agent or control. MC-HBV1.3 is a plasmid-derived minicircle that contains the same terminally redundant human hepatitis B virus sequence HBV1.3 as in plasmid pHBV1.3 and in the HBV1.3.32 transgenic mice (GenBank accession #V01460) (Guidotti L G et al., “High-level hepatitis B virus replication in transgenic mice,” J Virol 1995 Vol. 69, p 6158-6169.). 5 or 10 μg MC-HBV1.3 in Ringer's Solution in a total volume of 10% of the animal's body weight was injected into mice via tail vein to create pHBV model of chronic HBV infection. The solution was injected through a 27-gauge needle in 5-7 seconds as previously described (Zhang G et al., “High levels of foreign gene expression in hepatocytes after tail vein injection of naked plasmid DNA.” Human Gene Therapy 1999 Vol. 10, p 1735-1737.). At pre-dose (either day 1 pre-dose, day −1, or day −2), Hepatitis B surface antigen (HBsAg) HBsAg expression levels in serum were measured by ELISA and the mice were grouped according to average HBsAg expression levels.
(§2) HBV expression levels were normalized to pre-administration expression levels and to control mice injected with phosphate buffered saline (“PBS”).
HBeAg analysis was performed with the HBeAg enzyme linked immunosorbent assay (ELISA) as described by the manufacturer (DiaSorin) using serum diluted 4- to 20-fold in 5% nonfat dry milk. The amount of antigen was determined in the linear range of the assay and quantitated against HBeAg protein standards (Fitzgerald Industries International, catalog #30-AH18, Acton, Mass.).
HBeAg expression for each animal was normalized to the control group of mice injected with PBS in order to account for the non-treatment related decline in expression of MC-HBV1.3. For evaluation of HBeAg in serum, HBeAg is analyzed from pooled group or subgroup serum samples. First, the HBeAg level for each pooled group or subgroup was divided by the pre-treatment level of expression in the same group or subgroup in order to determine the ratio of expression “normalized to pre-treatment”. Expression at a specific time point was then normalized to the control group by dividing the “normalized to pre-treatment” ratio for a group or subgroup by the average “normalized to pre-treatment” ratio of all samples from the normal PBS control group.

[2] = tested on: Hepatitis B Virus (HBV); assay: Serum HBsAg levels in pHBV model mice (ELISA); format: in vivo; parameters: key to Average HBsAg levels normalized to pre-treatment (day −1) and PBS control / Average HBsAg levels normalized to pre-treatment and PBS control: fraction of pre-treatment level, relative to PBS control mean; conditions: for Average HBsAg levels normalized to pre-treatment (day −1) and PBS control: single s.c. injection day 1, Example 7; for Average HBsAg normalized to pre-treatment and PBS control: single s.c. injection on day 1; for Average HBsAg levels normalized to pre-treatment and PBS control (Group A used as control): 3.0 mg/kg, s.c. injection on day 1 and day 22, Example 10
Source text: as §1, §2
Mice were anesthetized with 2-3% isoflurane and blood samples were collected from the submandibular area into serum separation tubes (Sarstedt AG & Co., Nümbrecht, Germany). Blood was allowed to coagulate at ambient temperature for 20 min. The tubes were centrifuged at 8,000×g for 3 min to separate the serum and stored at 4° C.
Serum was collected and diluted 10 to 8000-fold in PBS containing 5% nonfat dry milk. […] HBsAg levels were determined with a GS HBsAg EIA 3.0 kit (Bio-Rad Laboratories, Inc., Redmond, Wash.) as described by the manufacturer. Recombinant HBsAg protein, ayw subtype, also diluted in nonfat milk in PBS, was used as a primary standard (Aldevron).
HBsAg expression for each animal was normalized to the control group of mice injected with PBS in order to account for the non-treatment related decline in expression of MC-HBV1.3. First, the HBsAg level for each animal at a time point was divided by the pre-treatment level of expression in that animal in order to determine the ratio of expression “normalized to pre-treatment”. Expression at a specific time point was then normalized to the control group by dividing the “normalized to pre-treatment” ratio for an individual animal by the average “normalized to pre-treatment” ratio of all mice in the normal PBS control group.

## AD04776: HBV RNAi agent duplex AM05850-AS/AM06150-SS (antisense UACCAAUUUAUGCCUACAGCC; sense GGCUGUAGGCAUAAAUUGGUA; chemistry not fully specified)
[1]; Day 8, 1.0 mg/kg
  Average HBeAg fold knockdown normalized to pre-treatment and PBS control: 2.6 Fold KD
  Average HBeAg levels normalized to pre-treatment and PBS control: 0.381
[1]; Day 8, 2.0 mg/kg
  Average HBeAg fold knockdown normalized to pre-treatment and PBS control: 3.6 Fold KD
  Average HBeAg levels normalized to pre-treatment and PBS control: 0.275
[1]; Day 8, 4.0 mg/kg
  Average HBeAg fold knockdown normalized to pre-treatment and PBS control: 5.2 Fold KD
  Average HBeAg levels normalized to pre-treatment and PBS control: 0.193
[1]; Day 15, 1.0 mg/kg
  Average HBeAg fold knockdown normalized to pre-treatment and PBS control: 2.7 Fold KD
  Average HBeAg levels normalized to pre-treatment and PBS control: 0.368
[1]; Day 15, 2.0 mg/kg
  Average HBeAg fold knockdown normalized to pre-treatment and PBS control: 3.9 Fold KD
  Average HBeAg levels normalized to pre-treatment and PBS control: 0.255
[1]; Day 15, 4.0 mg/kg
  Average HBeAg fold knockdown normalized to pre-treatment and PBS control: 4.7 Fold KD
  Average HBeAg levels normalized to pre-treatment and PBS control: 0.213
[1]; Day 22, 1.0 mg/kg
  Average HBeAg fold knockdown normalized to pre-treatment and PBS control: 2.8 Fold KD
  Average HBeAg levels normalized to pre-treatment and PBS control: 0.355
[1]; Day 22, 2.0 mg/kg
  Average HBeAg fold knockdown normalized to pre-treatment and PBS control: 2.7 Fold KD
  Average HBeAg levels normalized to pre-treatment and PBS control: 0.370
[1]; Day 22, 4.0 mg/kg
  Average HBeAg fold knockdown normalized to pre-treatment and PBS control: 3.8 Fold KD
  Average HBeAg levels normalized to pre-treatment and PBS control: 0.260
[1]; Day 29, 1.0 mg/kg
  Average HBeAg fold knockdown normalized to pre-treatment and PBS control: 1.8 Fold KD
  Average HBeAg levels normalized to pre-treatment and PBS control: 0.564
[1]; Day 29, 2.0 mg/kg
  Average HBeAg fold knockdown normalized to pre-treatment and PBS control: 2.0 Fold KD
  Average HBeAg levels normalized to pre-treatment and PBS control: 0.495
[1]; Day 29, 4.0 mg/kg
  Average HBeAg fold knockdown normalized to pre-treatment and PBS control: 3.3 Fold KD
  Average HBeAg levels normalized to pre-treatment and PBS control: 0.307
[1]; Day 36, 1.0 mg/kg
  Average HBeAg fold knockdown normalized to pre-treatment and PBS control: 2.1 Fold KD
  Average HBeAg levels normalized to pre-treatment and PBS control: 0.483
[1]; Day 36, 2.0 mg/kg
  Average HBeAg fold knockdown normalized to pre-treatment and PBS control: 2.2 Fold KD
  Average HBeAg levels normalized to pre-treatment and PBS control: 0.449
[1]; Day 36, 4.0 mg/kg
  Average HBeAg fold knockdown normalized to pre-treatment and PBS control: 2.2 Fold KD
  Average HBeAg levels normalized to pre-treatment and PBS control: 0.464
[2]; Day 8, 1.0 mg/kg
  Average HBsAg levels normalized to pre-treatment (day −1) and PBS control: 0.279 ± 0.057
[2]; Day 8, 2.0 mg/kg
  Average HBsAg levels normalized to pre-treatment (day −1) and PBS control: 0.224 ± 0.018
[2]; Day 8, 2.0 mg/kg, Example 15
  Average HBsAg normalized to pre-treatment and PBS control: 0.339 ± 0.076
[2]; Day 8
  Average HBsAg levels normalized to pre-treatment and PBS control (Group A used as control): 0.197 ± 0.081
[2]; Day 8, 4.0 mg/kg
  Average HBsAg levels normalized to pre-treatment (day −1) and PBS control: 0.117 ± 0.069
[2]; Day 15, 1.0 mg/kg
  Average HBsAg levels normalized to pre-treatment (day −1) and PBS control: 0.245 ± 0.032
[2]; Day 15, 2.0 mg/kg
  Average HBsAg levels normalized to pre-treatment (day −1) and PBS control: 0.161 ± 0.009
[2]; Day 15, 2.0 mg/kg, Example 15
  Average HBsAg normalized to pre-treatment and PBS control: 0.414 ± 0.126
[2]; Day 15
  Average HBsAg levels normalized to pre-treatment and PBS control (Group A used as control): 0.308 ± 0.138
[2]; Day 15, 4.0 mg/kg
  Average HBsAg levels normalized to pre-treatment (day −1) and PBS control: 0.085 ± 0.039
[2]; Day 22, 1.0 mg/kg
  Average HBsAg levels normalized to pre-treatment (day −1) and PBS control: 0.374 ± 0.121
[2]; Day 22, 2.0 mg/kg
  Average HBsAg levels normalized to pre-treatment (day −1) and PBS control: 0.310 ± 0.016
[2]; Day 22, 2.0 mg/kg, Example 15
  Average HBsAg normalized to pre-treatment and PBS control: 0.385 ± 0.067
[2]; Day 22
  Average HBsAg levels normalized to pre-treatment and PBS control (Group A used as control): 0.476 ± 0.156
[2]; Day 22, 4.0 mg/kg
  Average HBsAg levels normalized to pre-treatment (day −1) and PBS control: 0.148 ± 0.045
[2]; Day 29, 1.0 mg/kg
  Average HBsAg levels normalized to pre-treatment (day −1) and PBS control: 0.304
[2]; Day 29, 2.0 mg/kg
  Average HBsAg levels normalized to pre-treatment (day −1) and PBS control: 0.482
[2]; Day 29, 2.0 mg/kg, Example 15
  Average HBsAg normalized to pre-treatment and PBS control: 0.450 ± 0.075
[2]; Day 29
  Average HBsAg levels normalized to pre-treatment and PBS control (Group A used as control): 0.246 ± 0.081
[2]; Day 29, 4.0 mg/kg
  Average HBsAg levels normalized to pre-treatment (day −1) and PBS control: 0.198
[2]; Day 36, 2.0 mg/kg, Example 15
  Average HBsAg normalized to pre-treatment and PBS control: 0.617 ± 0.116
[2]; Day 36
  Average HBsAg levels normalized to pre-treatment and PBS control (Group A used as control): 0.244 ± 0.097
[2]; Day 43, 2.0 mg/kg, Example 15
  Average HBsAg normalized to pre-treatment and PBS control: 0.643 ± 0.154
[2]; Day 43
  Average HBsAg levels normalized to pre-treatment and PBS control (Group A used as control): 0.179 ± 0.061
[2]; Day 50, 2.0 mg/kg, Example 15
  Average HBsAg normalized to pre-treatment and PBS control: 0.665 ± 0.199
[2]; Example 15, administered alone or in combination with AD04872, across each of the time points measured
  knockdown of HBsAg compared to PBS control: significant knockdown of HBsAg
